Earlier results on 3 molecules are cited in US8512972B2, “Crystal of hypoxia inducible factor 1 alpha prolyl hydroxylase” (Akebia Therapeutics, Inc., priority 2006, dated 2013).

The test system of series [1] is HIF protein in HT1080, PC12W and 3T3L1 cells. As to conditions: HT1080, PC12W and 3T3L1 cells in culture.
Series [2] deals with GLUT1, heme oxygenase and nitric oxide synthase. As to conditions: neonatal rat cardiomyocytes.
The test system of the next series is HIF protein. The settings on record: administered to rats.

Turning to `CCOC(=O)c1ccc(O)c(O)c1` [ethyl-3,4 dihydroxybenzoate], the “induction of HIF protein” value in series [1] is recorded as “induce HIF protein”. In addition, the “expression of GLUT1, heme oxygenase and nitric oxide synthase” value in series [2] is on record as “induced the expression”. In the case of `COC(=O)CNC(=O)C(=O)OC` [dimethyloxalylglycine], the “expression of GLUT1, heme oxygenase and nitric oxide synthase” value in series [2] is “induced the expression”. `N[C@@H](Cn1ccc(=O)c(O)c1)C(=O)O` [L-mimosine]: the “induction of HIF protein” value in series [1] is “induce HIF protein”. In the series with HIF protein, the “HIF protein expression in the kidney” value was “induced HIF protein expression”.
